{"source": "PubChem BioAssay (NCI)", "test_in_all_cases": "DTP human tumour cell line panel, 48 h", "key": {"SW-620 colon": {"tested_on": "SW-620 colon"}, "SN12C renal": {"tested_on": "SN12C renal"}, "A549 NSCLC": {"tested_on": "A549 NSCLC"}, "TK-10 renal": {"tested_on": "TK-10 renal"}, "HCT-15 colon": {"tested_on": "HCT-15 colon"}, "SF-295 CNS": {"tested_on": "SF-295 CNS"}, "NCI-H522 lung": {"tested_on": "NCI-H522 lung"}, "SF-268 CNS": {"tested_on": "SF-268 CNS"}, "U251 CNS": {"tested_on": "U251 CNS"}, "M19-MEL melanoma": {"tested_on": "M19-MEL melanoma"}, "KM20L2 colon": {"tested_on": "KM20L2 colon"}, "SK-MEL-5 melanoma": {"tested_on": "SK-MEL-5 melanoma"}, "RXF 393 renal": {"tested_on": "RXF 393 renal"}, "786-0 renal": {"tested_on": "786-0 renal"}, "KM12 colon": {"tested_on": "KM12 colon"}, "HOP-62 NSCLC": {"tested_on": "HOP-62 NSCLC"}, "UO-31 renal": {"tested_on": "UO-31 renal"}, "XF 498 CNS": {"tested_on": "XF 498 CNS"}, "SF-539 CNS": {"tested_on": "SF-539 CNS"}, "SK-MEL-2 melanoma": {"tested_on": "SK-MEL-2 melanoma"}, "NCI-H460 lung": {"tested_on": "NCI-H460 lung"}, "DLD-1 colon": {"tested_on": "DLD-1 colon"}, "NCI-H226 lung": {"tested_on": "NCI-H226 lung"}, "SNB-78 CNS": {"tested_on": "SNB-78 CNS"}, "NCI-H23 lung": {"tested_on": "NCI-H23 lung"}, "SK-MEL-28 melanoma": {"tested_on": "SK-MEL-28 melanoma"}, "SNB-19 CNS": {"tested_on": "SNB-19 CNS"}, "SR leukemia": {"tested_on": "SR leukemia"}, "SNB-75 CNS": {"tested_on": "SNB-75 CNS"}, "K-562 leukemia": {"tested_on": "K-562 leukemia"}, "OVCAR-5 ovarian": {"tested_on": "OVCAR-5 ovarian"}, "DMS 114 small cell lung": {"tested_on": "DMS 114 small cell lung"}, "MOLT-4 leukemia": {"tested_on": "MOLT-4 leukemia"}, "HCC-2998 colon": {"tested_on": "HCC-2998 colon"}, "LXFL 529 NSCLC": {"tested_on": "LXFL 529 NSCLC"}, "HOP-92 NSCLC": {"tested_on": "HOP-92 NSCLC"}, "RPMI-8226 leukemia": {"tested_on": "RPMI-8226 leukemia"}, "CAKI-1 renal": {"tested_on": "CAKI-1 renal"}, "ACHN renal": {"tested_on": "ACHN renal"}, "RXF-631 renal": {"tested_on": "RXF-631 renal"}, "SK-OV-3 ovarian": {"tested_on": "SK-OV-3 ovarian"}, "M14 melanoma": {"tested_on": "M14 melanoma"}, "HT29 colon": {"tested_on": "HT29 colon"}, "UACC-257 melanoma": {"tested_on": "UACC-257 melanoma"}, "MALME-3M melanoma": {"tested_on": "MALME-3M melanoma"}, "A498 renal": {"tested_on": "A498 renal"}, "OVCAR-3 ovarian": {"tested_on": "OVCAR-3 ovarian"}, "IGROV1 ovarian": {"tested_on": "IGROV1 ovarian"}, "UACC-62 melanoma": {"tested_on": "UACC-62 melanoma"}, "HCT-116 colon": {"tested_on": "HCT-116 colon"}, "OVCAR-8 ovarian": {"tested_on": "OVCAR-8 ovarian"}, "HOP-18 NSCLC": {"tested_on": "HOP-18 NSCLC"}, "EKVX NSCLC": {"tested_on": "EKVX NSCLC"}, "OVCAR-4 ovarian": {"tested_on": "OVCAR-4 ovarian"}, "DMS 273 small cell lung": {"tested_on": "DMS 273 small cell lung"}, "CCRF-CEM leukemia": {"tested_on": "CCRF-CEM leukemia"}}, "note": "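Each compound was tested at five concentrations against cells in 96-well plates for 48 hours. The concentration for full growth arrest is given as TGI.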"}
{"smiles": "CC12CCC[C@@](C)(C(=O)OC3OC(CO)C(O)C(O)C3O)[C@H]1CCC13CC4CC(OC4(CO)[C@H]1O)[C@@H]23", "note": "(stereo partly specified)", "values": [{"measurement": "TGI", "setting": "SW-620 colon", "value": 31, "unit": "µM"}, {"measurement": "TGI", "setting": "SN12C renal", "value": "> 100", "unit": "µM"}, {"measurement": "TGI", "setting": "A549 NSCLC", "value": "> 100", "unit": "µM"}, {"measurement": "TGI", "setting": "TK-10 renal", "value": "> 100", "unit": "µM"}, {"measurement": "TGI", "setting": "HCT-15 colon", "value": "> 100", "unit": "µM"}, {"measurement": "TGI", "setting": "SF-295 CNS", "value": "> 100", "unit": "µM"}, {"measurement": "TGI", "setting": "NCI-H522 lung", "value": "> 100", "unit": "µM"}, {"measurement": "TGI", "setting": "SF-268 CNS", "value": "> 100", "unit": "µM"}, {"measurement": "TGI", "setting": "U251 CNS", "value": "> 100", "unit": "µM"}, {"measurement": "TGI", "setting": "M19-MEL melanoma", "value": "> 100", "unit": "µM"}, {"measurement": "TGI", "setting": "KM20L2 colon", "value": "> 100", "unit": "µM"}, {"measurement": "TGI", "setting": "SK-MEL-5 melanoma", "value": "> 100", "unit": "µM"}, {"measurement": "TGI", "setting": "RXF 393 renal", "value": "> 100", "unit": "µM"}, {"measurement": "TGI", "setting": "786-0 renal", "value": "> 100", "unit": "µM"}, {"measurement": "TGI", "setting": "KM12 colon", "value": "> 100", "unit": "µM"}, {"measurement": "TGI", "setting": "HOP-62 NSCLC", "value": "> 100", "unit": "µM"}, {"measurement": "TGI", "setting": "UO-31 renal", "value": "> 100", "unit": "µM"}, {"measurement": "TGI", "setting": "XF 498 CNS", "value": "> 100", "unit": "µM"}, {"measurement": "TGI", "setting": "SF-539 CNS", "value": "> 100", "unit": "µM"}, {"measurement": "TGI", "setting": "SK-MEL-2 melanoma", "value": "> 100", "unit": "µM"}, {"measurement": "TGI", "setting": "NCI-H460 lung", "value": "> 100", "unit": "µM"}, {"measurement": "TGI", "setting": "DLD-1 colon", "value": "> 100", "unit": "µM"}, {"measurement": "TGI", "setting": "NCI-H226 lung", "value": "> 100", "unit": "µM"}, {"measurement": "TGI", "setting": "SNB-78 CNS", "value": "> 100", "unit": "µM"}, {"measurement": "TGI", "setting": "NCI-H23 lung", "value": "> 100", "unit": "µM"}, {"measurement": "TGI", "setting": "SK-MEL-28 melanoma", "value": "> 100", "unit": "µM"}, {"measurement": "TGI", "setting": "SNB-19 CNS", "value": "> 100", "unit": "µM"}, {"measurement": "TGI", "setting": "SR leukemia", "value": "> 100", "unit": "µM"}, {"measurement": "TGI", "setting": "SNB-75 CNS", "value": "> 100", "unit": "µM"}, {"measurement": "TGI", "setting": "K-562 leukemia", "value": "> 100", "unit": "µM"}, {"measurement": "TGI", "setting": "OVCAR-5 ovarian", "value": "> 100", "unit": "µM"}, {"measurement": "TGI", "setting": "DMS 114 small cell lung", "value": 87.9, "unit": "µM"}, {"measurement": "TGI", "setting": "MOLT-4 leukemia", "value": "> 100", "unit": "µM"}, {"measurement": "TGI", "setting": "HCC-2998 colon", "value": "> 100", "unit": "µM"}, {"measurement": "TGI", "setting": "LXFL 529 NSCLC", "value": "> 100", "unit": "µM"}, {"measurement": "TGI", "setting": "HOP-92 NSCLC", "value": "> 100", "unit": "µM"}, {"measurement": "TGI", "setting": "RPMI-8226 leukemia", "value": "> 100", "unit": "µM"}, {"measurement": "TGI", "setting": "CAKI-1 renal", "value": "> 100", "unit": "µM"}, {"measurement": "TGI", "setting": "ACHN renal", "value": "> 100", "unit": "µM"}, {"measurement": "TGI", "setting": "RXF-631 renal", "value": "> 100", "unit": "µM"}, {"measurement": "TGI", "setting": "SK-OV-3 ovarian", "value": "> 100", "unit": "µM"}, {"measurement": "TGI", "setting": "M14 melanoma", "value": "> 100", "unit": "µM"}, {"measurement": "TGI", "setting": "HT29 colon", "value": "> 100", "unit": "µM"}, {"measurement": "TGI", "setting": "UACC-257 melanoma", "value": "> 100", "unit": "µM"}, {"measurement": "TGI", "setting": "MALME-3M melanoma", "value": "> 100", "unit": "µM"}, {"measurement": "TGI", "setting": "A498 renal", "value": "> 100", "unit": "µM"}, {"measurement": "TGI", "setting": "OVCAR-3 ovarian", "value": "> 100", "unit": "µM"}, {"measurement": "TGI", "setting": "IGROV1 ovarian", "value": "> 100", "unit": "µM"}, {"measurement": "TGI", "setting": "UACC-62 melanoma", "value": "> 100", "unit": "µM"}, {"measurement": "TGI", "setting": "HCT-116 colon", "value": "> 100", "unit": "µM"}, {"measurement": "TGI", "setting": "OVCAR-8 ovarian", "value": "> 100", "unit": "µM"}, {"measurement": "TGI", "setting": "HOP-18 NSCLC", "value": "> 100", "unit": "µM"}, {"measurement": "TGI", "setting": "EKVX NSCLC", "value": "> 100", "unit": "µM"}, {"measurement": "TGI", "setting": "OVCAR-4 ovarian", "value": "> 100", "unit": "µM"}, {"measurement": "TGI", "setting": "DMS 273 small cell lung", "value": "> 100", "unit": "µM"}, {"measurement": "TGI", "setting": "CCRF-CEM leukemia", "value": "> 100", "unit": "µM"}]}
